Where two headings read alike, the source gives them in different places.
Assays:
[1] = system: hand-foot syndrome induced by anti-tumor agents; test: Prevention of hand-foot syndrome induced by anti-tumor agents in rats, NO-NSAID ointment on hind paws (Table 2-2); type: in vivo, SD rats; conditions: Rattus norvegicus, topical, 120 h, Sorafenib 80 mg/kg once a day, Days 5, read-out: Control rate
Outline: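 Female SD rats (8 weeks, ~200 g; 10/group) received anti-tumour agents by daily oral gavage in Cremophor EL:ethanol 1:1 diluted ~3× with PBS. NO-NSAID or blank ointment was applied to hind paws once daily, 4 h restrained, then wiped off. Control rate = blank-group minus treated-group hand-foot syndrome incidence.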

HUVEC cells = test: CCK-8 cell viability: alleviation of proliferative toxicity of anti-tumor agents on HUVEC cells (Tables 7-1, 7-2); type: cell-based; conditions: for activation at 100 µM: Homo sapiens, 24 h, percentage increase in viable cells vs anti-tumor agent alone, read-out: Response rate % (average)
Outline: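 Viability was measured by CCK-8 after 24-48 h of culture. Cells received anti-tumor agent in DMSO with or without co-added NO-NSAID (dissolved in ethanol or sterile water), and results were corrected against the matching NO-NSAID solvent control.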

[2] = Afatinib (10 μM), NO-NSAID 100 μM
[3] = Cabozantinib (5 μM), NO-NSAID 100 μM
[4] = Dabrafenib (10 μM), NO-NSAID 100 μM
[5] = Everolimus (5 μM), NO-NSAID 100 μM
[6] = Infigratinib (15 μM), NO-NSAID 100 μM
[7] = Lapatinib (5 μM), NO-NSAID 100 μM
[8] = Lenvatinib (10 μM), NO-NSAID 100 μM
[9] = Olmutinib (10 μM), NO-NSAID 100 μM
[10] = Regorafenib (5 μM), NO-NSAID 100 μM
[11] = Selumetinib (5 μM), NO-NSAID 100 μM
[12] = Sorafenib (5 μM), NO-NSAID 100 μM
[13] = Sunitinib (5 μM), NO-NSAID 100 μM

For `CC(C)Cc1ccc(C(C)C(=O)OCO/N=[N+](\[O-])N(C)C)cc1` (stereo not drawn) [Compound A4], the responders at 0.5 % ([1]; ointment 0.50% wt) was 42.9%, the responders at 2 % ([1]; ointment 2% wt) was 71.4% and the “NO-NSAID response rate % (average)” value (HUVEC cells; Afatinib (10 μM), NO-NSAID 0.1 μM) was 18%. The “NO-NSAID response rate % (average)” value (HUVEC cells; Afatinib (10 μM), NO-NSAID 1 μM) was 35%, the “NO-NSAID response rate % (average)” value (HUVEC cells; [2]) was 70% and the “NO-NSAID response rate % (average)” value (HUVEC cells; Afatinib (10 μM), NO-NSAID 500 μM) was 14%. The “NO-NSAID response rate % (average)” value (HUVEC cells; Cabozantinib (5 μM), NO-NSAID 0.1 μM) was 3%, the “NO-NSAID response rate % (average)” value (HUVEC cells; Cabozantinib (5 μM), NO-NSAID 1 μM) was 9% and the “NO-NSAID response rate % (average)” value (HUVEC cells; [3]) was 13%. For the same compound, the “NO-NSAID response rate % (average)” value (HUVEC cells; Cabozantinib (5 μM), NO-NSAID 500 μM) was 11%, the “NO-NSAID response rate % (average)” value (HUVEC cells; Dabrafenib (10 μM), NO-NSAID 0.1 μM) was 20% and the “NO-NSAID response rate % (average)” value (HUVEC cells; Dabrafenib (10 μM), NO-NSAID 1 μM) was 34%. For the same compound, the “NO-NSAID response rate % (average)” value (HUVEC cells; [4]) was 33%, the “NO-NSAID response rate % (average)” value (HUVEC cells; Dabrafenib (10 μM), NO-NSAID 500 μM) was 41% and the “NO-NSAID response rate % (average)” value (HUVEC cells; Everolimus (5 μM), NO-NSAID 0.1 μM) was 10%. For the same compound, the “NO-NSAID response rate % (average)” value (HUVEC cells; Everolimus (5 μM), NO-NSAID 1 μM) was −2%, the “NO-NSAID response rate % (average)” value (HUVEC cells; [5]) was 1% and the “NO-NSAID response rate % (average)” value (HUVEC cells; Everolimus (5 μM), NO-NSAID 500 μM) was 4%. The activation at 100 µM (HUVEC cells; [2]) was 70%, the activation at 100 µM (HUVEC cells; Anlotinib (5 μM), NO-NSAID 100 μM) was 67% and the activation at 100 µM (HUVEC cells; Apatinib (10 μM), NO-NSAID 100 μM) was 52%. It also gave an activation at 100 µM (HUVEC cells; Axitinib (10 μM), NO-NSAID 100 μM) of 39%, an activation at 100 µM (HUVEC cells; [3]) of 13% and an activation at 100 µM (HUVEC cells; [4]) of 33%. For the same compound, the activation at 100 µM (HUVEC cells; Dacomitinib (5 μM), NO-NSAID 100 μM) was 71%, the activation at 100 µM (HUVEC cells; Encorafenib (5 μM), NO-NSAID 100 μM) was 59% and the activation at 100 µM (HUVEC cells; Erdafitinib (10 μM), NO-NSAID 100 μM) was 45%. The activation at 100 µM (HUVEC cells; [5]) was 1%, the activation at 100 µM (HUVEC cells; Famitinib (5 μM), NO-NSAID 100 μM) was 69% and the activation at 100 µM (HUVEC cells; Fruquintinib (10 μM), NO-NSAID 100 μM) was 62%. The activation at 100 µM (HUVEC cells; Gefitinib (10 μM), NO-NSAID 100 μM) was 42%, the activation at 100 µM (HUVEC cells; [6]) was 30% and the activation at 100 µM (HUVEC cells; [7]) was 30%. For the same compound, the activation at 100 µM (HUVEC cells; [8]) was 74%, the activation at 100 µM (HUVEC cells; [9]) was 28% and the activation at 100 µM (HUVEC cells; [10]) was 74%. It also gave an activation at 100 µM (HUVEC cells; [11]) of 34%, an activation at 100 µM (HUVEC cells; [12]) of 76% and an activation at 100 µM (HUVEC cells; [13]) of 34%. For the same compound, the activation at 100 µM (HUVEC cells; Vemurafenib (5 μM), NO-NSAID 100 μM) was 58%, the “NO-NSAID response rate % (average)” value (HUVEC cells; Infigratinib (15 μM), NO-NSAID 0.1 μM) was 23% and the “NO-NSAID response rate % (average)” value (HUVEC cells; Infigratinib (15 μM), NO-NSAID 1 μM) was 39%. The “NO-NSAID response rate % (average)” value (HUVEC cells; [6]) was 30%, the “NO-NSAID response rate % (average)” value (HUVEC cells; Infigratinib (15 μM), NO-NSAID 500 μM) was 18% and the “NO-NSAID response rate % (average)” value (HUVEC cells; Lapatinib (5 μM), NO-NSAID 0.1 μM) was 20%. For the same compound, the “NO-NSAID response rate % (average)” value (HUVEC cells; Lapatinib (5 μM), NO-NSAID 1 μM) was 17%, the “NO-NSAID response rate % (average)” value (HUVEC cells; [7]) was 30% and the “NO-NSAID response rate % (average)” value (HUVEC cells; Lapatinib (5 μM), NO-NSAID 500 μM) was 28%. For the same compound, the “NO-NSAID response rate % (average)” value (HUVEC cells; Lenvatinib (10 μM), NO-NSAID 0.1 μM) was 24%, the “NO-NSAID response rate % (average)” value (HUVEC cells; Lenvatinib (10 μM), NO-NSAID 1 μM) was 15% and the “NO-NSAID response rate % (average)” value (HUVEC cells; [8]) was 74%. For the same compound, the “NO-NSAID response rate % (average)” value (HUVEC cells; Lenvatinib (10 μM), NO-NSAID 500 μM) was 14%, the “NO-NSAID response rate % (average)” value (HUVEC cells; Olmutinib (10 μM), NO-NSAID 0.1 μM) was 25% and the “NO-NSAID response rate % (average)” value (HUVEC cells; Olmutinib (10 μM), NO-NSAID 1 μM) was 38%. The “NO-NSAID response rate % (average)” value (HUVEC cells; [9]) was 28%, the “NO-NSAID response rate % (average)” value (HUVEC cells; Olmutinib (10 μM), NO-NSAID 500 μM) was 30% and the “NO-NSAID response rate % (average)” value (HUVEC cells; Regorafenib (5 μM), NO-NSAID 0.1 μM) was 29%. The “NO-NSAID response rate % (average)” value (HUVEC cells; Regorafenib (5 μM), NO-NSAID 1 μM) was 26%, the “NO-NSAID response rate % (average)” value (HUVEC cells; [10]) was 74% and the “NO-NSAID response rate % (average)” value (HUVEC cells; Regorafenib (5 μM), NO-NSAID 500 μM) was 26%. The “NO-NSAID response rate % (average)” value (HUVEC cells; Selumetinib (5 μM), NO-NSAID 0.1 μM) was 35%, the “NO-NSAID response rate % (average)” value (HUVEC cells; Selumetinib (5 μM), NO-NSAID 1 μM) was 33% and the “NO-NSAID response rate % (average)” value (HUVEC cells; [11]) was 34%. For the same compound, the “NO-NSAID response rate % (average)” value (HUVEC cells; Selumetinib (5 μM), NO-NSAID 500 μM) was 41%, the “NO-NSAID response rate % (average)” value (HUVEC cells; Sorafenib (5 μM), NO-NSAID 0.1 μM) was 4% and the “NO-NSAID response rate % (average)” value (HUVEC cells; Sorafenib (5 μM), NO-NSAID 1 μM) was 17%. For the same compound, the “NO-NSAID response rate % (average)” value (HUVEC cells; [12]) was 76%, the “NO-NSAID response rate % (average)” value (HUVEC cells; Sorafenib (5 μM), NO-NSAID 500 μM) was 16% and the “NO-NSAID response rate % (average)” value (HUVEC cells; Sunitinib (5 μM), NO-NSAID 0.1 μM) was 19%. For the same compound, the “NO-NSAID response rate % (average)” value (HUVEC cells; Sunitinib (5 μM), NO-NSAID 1 μM) was 20%, the “NO-NSAID response rate % (average)” value (HUVEC cells; [13]) was 34% and the “NO-NSAID response rate % (average)” value (HUVEC cells; Sunitinib (5 μM), NO-NSAID 500 μM) was 20%.

From US20250170090A1, “METHOD FOR PREVENTING OR TREATING DISEASE OR DISORDER ASSOCIATED WITH ANTINEOPLASTIC AGENT” (ONQUALITY PHARMACEUTICALS CHINA LTD., priority 2022, published 2025)
